Experimental data published in patent publication US20170224840A1, “Drug Delivery System Comprising A Cancer Stem Cell-Targeted Carbon Nanotube, Preparation and Use Thereof” (Institute of Pharmacology and Toxicology Academy of …, priority 2014, published 2017).

Columns and labels:
CD44+ cells [1] = test: Apoptosis by Annexin V-FITC / propidium iodide flow cytometry; type: cell-based, human; conditions: drug concentration 5.0 μM, 12 h
Protocol: Flow cytometry was used to detect the apoptosis of gastric cancer stein cells via double-staining method with Annexin V-FITC and propidium iodide (PI), so as to observe the activities of various salinomycin dosage forms in induction of apoptosis of gastric cancer stem cells. CD44+ cells were seeded in a 6-well cell culture plate in an amount of 5×10^5 cells/well (2 ml), and incubated at 37° C. in a 5% CO2 cell incubator for 24 h; and separately added with PBS (pH 7.4, 0.1 M), blank SWNTs-CHI-HA, free salinomycin, SAL-SWNTs-CHI or SAL-SWNTs-CHI-HA (drug concentration: 5.0 μM), and continuously incubated at 37° C. for 12 h in a 5% CO2 cell incubator. The 6-well cell culture plate was removed from the cell culture incubator, the supernatant was carefully sucked up; the cells were washed three times with cold pH7.4 PBS, collected and suspended in 200 μl of binding buffer. 5 μl of Annexin V-FITC and 5 μl of propidium iodide were added in the dark, placed in the dark at room temperature for 15 min, and the apoptotic rate of the cells was detected by flow cytometry.

CD44+ cells [2] = test: WST-8 proliferation inhibition, CD44+ cells; type: cell-based, human; conditions: 48 h, series of concentrations
Protocol: (§1) CD44+ cells and CD44-cells sorted from human gastric cancer cell line AGS were seeded in an amount of 5000/well to 96-well plates, and incubated for 24 h at 37° C. in a 5% CO2 incubator. Free salinomycin in a series of concentrations, SAL-SWNTs-CHI, SAL-SWNTs-CHI-HA or blank SWNTs-CHI-HA were added to, and same amount of drug-free culture medium was used as blank control. After the addition, the 96-well plates were incubated for 48 h at 37° C. in a 5% CO2 incubator. After the completion of the cell culture, the plates were taken out and the culture media in the wells were removed. After washing with sterile PBS, 100 μL of PBS and 10 μL of WST-8 reagent were added to each well, and incubation was continued for 2 hours. Optical density (OD) was measured at the wavelength of 450 nm using a microplate reader. The toxicities of various salinomycin preparations on gastric cancer stem cells were evaluated by using the percentages of surviving cells (Survival rate, %) after the addition and culture. The percentages of surviving cells were calculated according to the following formula:
(§2) Inhibition rate=1−Cell survival rate.

breast cancer stem cells = conditions: cited from earlier work
[3] = cited from earlier work
AGS cells = test: Effect on proportion of CD44+ cells in AGS cells (flow cytometry); type: cell-based, human; conditions: drug concentration 1.0 μM, 48 h; blank control 5.2±0.1%
Protocol: In order to measure the effects of various salinomycin dosage forms on the expression of CD44 in AGS cells, AGS cells were seeded in 6-well plates at 3×10^5 cells/well. After incubation for 24 h, AGS cells were incubated with free mitomycin, free salinomycin, SAL-SWNTs-CHI or SAL-SWNTs-CHI-HA (drug concentration was 1.0 μM) separately at 37° C. for 48 h. The blank medium was used as control. After incubation, the cells were washed three times with cold PBS, digested with 0.25% trypsin, and then pipetted with PBS to make cell suspensions. The expression rates of CD44 in AGS cells were detected by flow cytometry.

CD44− cells = test: WST-8 proliferation inhibition, CD44- cells; type: cell-based, human; conditions: 48 h, series of concentrations
Protocol: as §1, §2

[4] = system: gastric cancer stem cell spheres; test: Inhibition of growth of gastric cancer stem cell spheres; type: cell-based, human; conditions: salinomycin 5 μM, 6th day after administration; PBS 433.3±6.0%
Protocol: (§3) CD44+ cell suspension was inoculated to a low-absorption 24-well plate in an amount of 5×10^4/well, and subjected to suspension culture with DMEM/F12 medium (1% N2, 2% B27, 10 ng/mL bFGF, 20 ng/mL EGF), incubated in a 5% CO2 incubator at 37° C. for 6 days. Medium was replaced every three days. The stem cell spheres with diameter of more than 200 μm were transferred to a 96-well culture plate, one sphere per well.
To the wells of 96-well culture plate, PBS, free salinomycin, SAL-SWNTs-CHI or SAL-SWNTs-CHI-HA were added, respectively, and the concentration of salinomycin in the above preparations was 5 μM. After addition, the 96-well plate was placed in a 37° C., 5% CO2 incubator and incubated continuously. The growth of tumor spheres under these conditions was observed. […] The formula for calculating the inhibition rate of tumor sphere growth was as follows: […], in which dmax was maximum diameter, dmin was minimum diameter; tumor sphere volume change rate %=(Vdayi/Vday0) 100%, in which Vdayi represents the volume of stem cell spheres on the i^th day after administration, and Vday0 represents the volume of stem cell spheres before administration.

[5] = system: gastric cancer stem cell spheres; test: Penetration of stem cell spheres by laser confocal microscopy; type: cell-based, human; conditions: FITC 5 uM, 12 hours
Protocol: as §3
Free FITC, FITC-SWNTs-CHI or FITC-SWNTs-CHI-HA were separately added to the wells of a 96-well plate containing stem cell spheres, and the concentration of FITC in the above preparations was 5 uM. After the addition, the 96-well plate was placed in a 37° C., 5% CO2 incubator to continue the culture for 12 hours; then the stem cell spheres were transferred to a glass-bottom dish, 5 stem cell spheres in each group, washed three times with fresh culture medium, and then 100 μl of fresh culture medium was added in each dish; for each stem cell sphere, it was light-cut into layers from the top to the center of the sphere at 10 μm intervals, and FITC fluorescence intensities of different layers were studied.

Row | Compound | Apoptotic rate of gastric cancer stem cells (CD44+ cells [1]) | Necrosis rate of gastric cancer stem cells (CD44+ cells [1]) | Inhibitory effect on proliferation of CD44+ cells (CD44+ cells [2]) | Effect of killing breast cancer stem cells relative to paclitaxel (breast cancer stem cells) | Water solubility [3] | Proportion of CD44+ cells after treatment (AGS cells) | Inhibitory effect on proliferation of CD44− cells (CD44− cells) | Volume change rate of cell spheres [4] | FITC fluorescence in stem cell spheres (penetration) [5]
1 | CC[C@@H](C(=O)[C@@H](C)[C@@H](O)[C@H](C)[C@@H]1O[C@@H]([C@@H](CC)C(=O)O)CC[C@@H]1C)[C@H]1O[C@]2(C=C[C@@H](O)[C@]3(CC[C@@](C)([C@H]4CC[C@](O)(CC)[C@H](C)O4)O3)O2)[C@H](C)C[C@@H]1C [Salinomycin] | 34.8% | 4.3% | significant inhibitory effects | more than 100 times | poor | 1.75±0.21% | strongest inhibitory effect | 179.5±5.8% | –
2 | CO[C@@]12[C@H](COC(N)=O)C3=C(C(=O)C(C)=C(N)C3=O)N1C[C@@H]1N[C@@H]12 [mitomycin C] | – | – | – | – | – | 74.9±1.0% | – | – | –
3 | fluorescein isothiocyanate [free FITC] | – | – | – | – | – | – | – | – | weakest fluorescence intensity
